According to ChEMBL document CHEMBL1201862, “PubChem BioAssay data set” (2004):
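These data come from cells grown in 96-well plates and exposed to compound for 48 hours at five concentrations. GI50 = concentration required for 50% inhibition of growth.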 Active and inactive are the calls of the source. Rule as the data show it: active = GI50 up to about 1.1 µM and inactive = higher.

How the values were obtained:
Test in all cases: DTP human tumour cell line panel, 48 h
MCF7 = tested on: MCF7
RXF 393 = tested on: RXF 393
NCI-H460 = tested on: NCI-H460
HCT-15 = tested on: HCT-15
TK-10 = tested on: TK-10
SF-268 = tested on: SF-268
K562 = tested on: K562
SNB-75 = tested on: SNB-75
NCI-H23 = tested on: NCI-H23
SK-MEL-2 = tested on: SK-MEL-2
SK-MEL-28 = tested on: SK-MEL-28
A498 = tested on: A498
Hs-578T = tested on: Hs-578T
SF-539 = tested on: SF-539
SN12C = tested on: SN12C
CCRF-CEM = tested on: CCRF-CEM
HT-29 = tested on: HT-29
HOP-92 = tested on: HOP-92
OVCAR-3 = tested on: OVCAR-3
SF-295 = tested on: SF-295

Structure (SMILES) | GI50 (MCF7) | GI50 (RXF 393) | GI50 (NCI-H460) | GI50 (HCT-15) [µM] | GI50 (TK-10) | GI50 (SF-268) | GI50 (K562) | GI50 (SNB-75) | GI50 (NCI-H23) | GI50 (SK-MEL-2) | GI50 (SK-MEL-28) | GI50 (A498) | GI50 (Hs-578T) | GI50 (SF-539) | GI50 (SN12C) | GI50 (CCRF-CEM) | GI50 (HT-29) | GI50 (HOP-92) | GI50 (OVCAR-3) | GI50 (SF-295)
CN(C)c1nc(NC23CC4CC(CC(C4)C2)C3)nc(N(C)C)n1 | 8.15 µM (inactive) | 3.48 µM (inactive) | 16.6 µM (inactive) | 5.15 | 35.6 µM (inactive) | > 42.1 µM (inactive) | 2.81 µM (inactive) | 7.35 µM (inactive) | 9.33 µM (inactive) | 20.1 µM (inactive) | 22 µM (inactive) | > 54 µM (inactive) | 16.3 µM (inactive) | 21.8 µM (inactive) | 27.2 µM (inactive) | 5.06 µM (inactive) | 26.6 µM (inactive) | 10.6 µM (inactive) | 17.2 µM (inactive) | 6.28 µM (inactive)
O=C(NC(=O)c1cc(-c2ccccc2)n[nH]1)c1ccccc1 | > 100 µM (inactive) | > 100 µM (inactive) | > 100 µM (inactive) | > 100 | > 100 µM (inactive) | > 100 µM (inactive) | 77.8 µM (inactive) | 26.5 µM (inactive) | > 100 µM (inactive) | > 100 µM (inactive) | > 100 µM (inactive) | > 100 µM (inactive) | > 100 µM (inactive) | > 100 µM (inactive) | > 100 µM (inactive) | > 100 µM (inactive) | > 100 µM (inactive) | > 100 µM (inactive) | > 100 µM (inactive) | > 100 µM (inactive)
N#CC1(C#N)C2CCCCC23OC(=N)C1(C#N)C(c1ccco1)O3 (stereo not given) | 21.9 µM (inactive) | 21.7 µM (inactive) | 25.8 µM (inactive) | 9.23 | 17.1 µM (inactive) | 30.8 µM (inactive) | 8.38 µM (inactive) | 55.5 µM (inactive) | 26.1 µM (inactive) | 17.6 µM (inactive) | 15.6 µM (inactive) | 21.9 µM (inactive) | 30.8 µM (inactive) | 23.8 µM (inactive) | 14.8 µM (inactive) | 10.5 µM (inactive) | 26.7 µM (inactive) | 13.8 µM (inactive) | 16.1 µM (inactive) | > 100 µM (inactive)
CC(=O)Nc1ccc(Cc2ccc3nc(O)cc(C)c3c2)cc1 | 81.5 µM (inactive) | 35.5 µM (inactive) | 62.1 µM (inactive) | > 100 | 40.5 µM (inactive) | > 100 µM (inactive) | > 100 µM (inactive) | 10.3 µM (inactive) | > 100 µM (inactive) | 22.2 µM (inactive) | > 100 µM (inactive) | > 100 µM (inactive) | 85.1 µM (inactive) | 68.7 µM (inactive) | 64.6 µM (inactive) | > 100 µM (inactive) | 50.6 µM (inactive) | > 100 µM (inactive) | > 100 µM (inactive) | 29.9 µM (inactive)
CC(=O)NNc1nc(-c2ccc([N+](=O)[O-])cc2)c(C#N)c(=O)n1C | 28.5 µM (inactive) | 57 µM (inactive) | > 100 µM (inactive) | 29.3 | 24 µM (inactive) | 33.1 µM (inactive) | 24.3 µM (inactive) | 18.9 µM (inactive) | 29.4 µM (inactive) | > 100 µM (inactive) | > 100 µM (inactive) | 25.5 µM (inactive) | 27.1 µM (inactive) | 18.3 µM (inactive) | > 100 µM (inactive) | 50.7 µM (inactive) | 99.3 µM (inactive) | 13.5 µM (inactive) | 15.3 µM (inactive) | 47.5 µM (inactive)
Nc1nc(Sc2ccc([N+](=O)[O-])c3nonc23)c2nc[nH]c2n1 | 0.593 µM (active) | 1.36 µM (inactive) | 0.627 µM (active) | 1.89 | 0.687 µM (active) | 0.681 µM (active) | 0.369 µM (active) | 3.31 µM (inactive) | 2.25 µM (inactive) | 1.06 µM (active) | 10.5 µM (inactive) | 13.7 µM (inactive) | 6.58 µM (inactive) | 1.53 µM (inactive) | 1.97 µM (inactive) | 0.191 µM (active) | 1.59 µM (inactive) | 2.56 µM (inactive) | 0.624 µM (active) | 0.701 µM (active)
O=C(O)C1CCCN1C(=O)c1cc(Cl)ccn1 (stereo not given) | > 100 µM (inactive) | > 100 µM (inactive) | > 100 µM (inactive) | > 100 | > 100 µM (inactive) | > 100 µM (inactive) | > 100 µM (inactive) | > 100 µM (inactive) | > 100 µM (inactive) | > 100 µM (inactive) | > 100 µM (inactive) | > 100 µM (inactive) | > 100 µM (inactive) | > 100 µM (inactive) | > 100 µM (inactive) | > 100 µM (inactive) | > 100 µM (inactive) | > 100 µM (inactive) | > 100 µM (inactive) | > 100 µM (inactive)
N#Cc1c(Cl)c2cc([N+](=O)[O-])ccc2n2c1nc1ccccc12 | 1.17 µM (inactive) | 2.38 µM (inactive) | 14.6 µM (inactive) | 0.933 | 3.81 µM (inactive) | 5.71 µM (inactive) | 1.85 µM (inactive) | 8.81 µM (inactive) | 9.98 µM (inactive) | 15.5 µM (inactive) | 6.87 µM (inactive) | 25.6 µM (inactive) | 7.69 µM (inactive) | 2.15 µM (inactive) | 4.44 µM (inactive) | 0.57 µM (active) | 4.46 µM (inactive) | 2.77 µM (inactive) | 6.76 µM (inactive) | 26.8 µM (inactive)
